Experimental data: patent US9783499B2, “Quinoline derivatives and their applications” (Shenyang Pharmaceutical University, priority 2012, dated 2017)
≈ marks a conversion by molar mass, not a printed value.

How the values were obtained:
Assay type in all cases: cell-based
[1] = system: HT-29 (colon cancer cell); test: In vitro anti-tumor cellular activity (MTT), HT-29; conditions: 72 hours; for IC50: Homo sapiens
Procedure: (§1) After pouring the cell dissociation buffer to the centrifugetube, nutrient solution was added to stop digestion. The centrifugetube were centrifuged for 10 min under 800 r/min, the liquid supernatant was removed, 5 mL culture solution was added, after mixing by pipetting the cell, took 10 μL cell suspension to the cell counting plat, and adjusted the cell concentration to 10^4/well. Among the 96 wells, A1 is empty, 100 μL of cell suspension were added to the other wells. The 96 well plates were incubated in the incubator for 24 h. […] The 96-well plates were placed in an incubator and cultivated for 72 hours. (3) The culture media containing the compounds in the 96-well plates was discarded, and the cells were washed with phosphate buffered solution (PBS) twice. Each well was added with 100 μL MTT (tetrazole) (0.5 mg/mL), and then placed in an incubator to incubate for 4 hours, after which MTT solution was discarded and 100 μL dimethyl sulfoxide was added thereto.

[2] = system: MKN-45 (human gastric carcinoma cell); test: In vitro anti-tumor cellular activity (MTT), MKN-45; conditions: 72 hours; for IC50: Homo sapiens
Procedure: as §1

[3] = system: U87MG (Human malignant glioblastoma cell); test: In vitro anti-tumor cellular activity (MTT), U87MG; conditions: 72 hours; for IC50: Homo sapiens, U-87 MG
Procedure: as §1

[4] = system: MDA-MB-231 (human beast cancer cell); test: In vitro anti-tumor cellular activity (MTT), MDA-MB-231; conditions: 72 hours; for IC50: Homo sapiens
Procedure: as §1

[5] = system: SMMC-7721 (hepatoma cell); test: In vitro anti-tumor cellular activity (MTT), SMMC-7721; conditions: 72 hours; for IC50: Homo sapiens
Procedure: as §1

[6] = system: H460 (human lung cancer cell); test: In vitro anti-tumor cellular activity (MTT), H460; conditions: for H460 IC50: 72 hours; for IC50: Homo sapiens, NCI-H460, 72 hours
Procedure: as §1

Row | IC50 [1] [µg/mL] | IC50 [2] [µg/mL] | IC50 [3] [µg/mL] | IC50 [5] [µg/mL] | IC50 [6] [µg/mL] | Compound | HT-29 IC50 [1] [µg/mL] | MKN-45 IC50 [2] [µg/mL] | U87MG IC50 [3] [µg/mL] | MDA-MB-231 IC50 [4] [µg/mL] | SMMC-7721 IC50 [5] [µg/mL] | H460 IC50 [6] [µg/mL] | IC50 [4] [µg/mL]
1 |  |  |  |  |  | COc1cc2c(Oc3ccc(NC(=O)N/N=C/c4ccccc4)cc3F)ccnc2cc1OCCCN1CCN(C)CC1 [Example 4, (E)-N^1-(3-fluoro-4-(6-methoxy-7-(3-(4-methylpiperazin-1-yl)propoxy)quinoline-4-lyoxy)phenyl)-N^4-(benzaldehyde)semicarbazone] | 0.093 | 0.11 | 0.25 | 0.066 | 0.23 | 0.084 | 
2 | 0.065 (≈ 0.0997 µM) | 0.1 (≈ 0.153 µM) | 0.89 (≈ 1.37 µM) | 0.98 (≈ 1.5 µM) | 0.16 (≈ 0.245 µM) | COc1cc2c(Oc3ccc(N(/N=C/c4c(O)ccc5ccccc45)C(N)=O)cc3F)ccnc2cc1OCCCN1CCC(C)CC1 [Example 21, (E)-N^1-(3-fluoro-4-(6-methoxy-7-(3-(4-methylpiperidin-1-yl)propoxy)quinoline-4-yloxy)phenyl)-N^4-(2-hydroxy-1-naphthaldehyde)semicarbazone] |  |  |  |  |  |  | 0.087 (≈ 0.133 µM)
3 |  |  |  |  |  | COc1cc2c(Oc3ccc(C=NNC(=O)Nc4cccc(Br)c4)cc3F)ccnc2cc1OCCCN1CCOCC1 [Example 54, (E)-N^1-(3-bromophenyl)-N^4-(3-fluoro-4-(6-methoxy-7-(3-(morpholin-4-yl)propoxy)quinoline-4-yloxy)benzaldehyde)semicarbazone] | 1.3 | 2.0 | 1.8 | 0.96 | 2.7 | 1.5 | 
4 |  |  |  |  |  | CCC(=NNC(=O)Nc1ccc(Oc2ccnc3cc(OCCCN4CCCCC4)c(OC)cc23)c(F)c1)c1ccccc1 [Example 30, (E)-N^1-(3-fluoro-4-(6-methoxy-7-(3-(piperidin-1-yl)propoxy)quinoline-4-yloxy)phenyl)-N^4-(propiophenone)thiosemicarbazone] |  | 0.0020 | 0.051 | 0.0021 | 0.44 | 0.0012 | 
5 |  |  |  |  |  | COc1cc2c(Oc3ccc(NC(=O)NN=Cc4ccc(F)cc4Cl)cc3F)ccnc2cc1OCCCN1CCOCC1 [Example 14, (E)-N^1-(3-fluoro-4-(6-methoxy-7-(3-(morpholin-4-yl)propoxy)quinoline-4-yloxy)phenyl)-N^4-(2-chloro-4-fluorobenzaldehyde)semicarbazone] | 0.81 | 0.65 | 1.4 | 0.90 | 1.5 | 1.2 | 
6 |  |  |  |  |  | COc1cc2c(Oc3ccc(NC(=O)N/N=C/c4ccccc4)cc3F)ccnc2cc1OCCCN1CCCCC1 [Example 5, (E)-N^1-(3-fluoro-4-(6-methoxy-7-(3-(piperidin-1-yl)propoxy)quinoline-4-yloxy)phenyl)-N^4-(benzaldehyde)semicarbazone] | 0.0088 | 0.012 | 0.19 | 0.010 | 0.16 | 0.012 | 
7 |  |  |  |  |  | COc1cccc(/C=N/NC(=O)Nc2ccc(Oc3ccnc4cc(OCCCN5CCC(C)CC5)c(OC)cc34)c(F)c2)c1 [Example 7] | 0.0006 | 0.0021 | 0.10 | 0.011 | 0.13 | 0.0012 | 
8 |  |  |  |  |  | (E)-N^1-(3,5-dichlorophenyl)-N^4-(3-fluoro-4-(6-methoxy-7-(3-(piperidin-1-yl)propoxy)quinolin-4-yloxy)benzylidene)thiosemicarbazide [Example 61] | 0.076 | 0.15 | 0.21 | 0.092 | 0.22 | 0.054 | 
9 |  |  |  |  |  | COc1cc2c(Oc3ccc(NC(=O)N/N=C/c4ccccc4)cc3F)ccnc2cc1OCCCN1CCOCC1 [Example 3, (E)-N^1-(3-fluoro-4-(6-methoxy-7-(3-(morpholin-4-yl)propoxy)quinoline-4-yloxy)phenyl)-N^4-(benzaldehyde)semicarbazone] | 0.42 | 0.12 | 0.33 | 0.13 | 2.1 | 0.11 | 
10 |  |  |  |  |  | COc1cc2c(Oc3ccc(NC(=O)N/N=C(\C)c4ccccc4)cc3F)ccnc2cc1OCCCN1CCCCC1 [Example 17, (E)-N^1-(3-fluoro-4-(6-methoxy-7-(3-(piperidin-1-yl)propoxy)quinoline-4-yloxy)phenyl)-N^4-(acetophenone)semicarbazone] | 0.0057 | 0.072 | 0.24 | 0.071 | 0.13 | 0.069 | 
11 |  |  |  |  |  | (E)-N^1-(3-fluoro-4-(6-methoxy-7-(3-(piperidin-1-yl)propoxy)quinoline-4-yloxy)phenyl)-N^4-(2-chloro-4-fluorobenzaldehyde)thiosemicarbazone [Example 43] | 0.0031 |  | 0.092 | 0.0029 | 0.069 | 0.0067 | 
12 |  |  |  |  |  | COc1cc2c(Oc3ccc(NC(=O)N/N=C/c4ccc(F)cc4)cc3F)ccnc2cc1OCCCN1CCC(C)CC1 [Example 10, (E)-N^1-(3-fluoro-4-(6-methoxy-7-(3-(4-methylpiperidin-1-yl)propoxy)quinoline-4-lyoxy)phenyl)-N^4-(4-fluorobenzaldehyde)semicarbazone] | 0.0015 | 0.038 | 0.019 | 0.011 | 0.16 | 0.0092 | 
13 |  |  |  |  |  | COc1cc2c(Oc3ccc(C=NNC(=O)Nc4ccc(Cl)c(C(F)(F)F)c4)cc3F)ccnc2cc1OCCCN1CCCCC1 [Example 46] | 0.45 | 0.23 | 1.2 | 0.25 | 0.69 | 0.33 | 
14 |  |  |  |  |  | COc1cc2c(Oc3ccc(NC(=S)NN=Cc4ccc(Cl)cc4Cl)cc3F)ccnc2cc1OCCCN1CCN(C)CC1 [Example 40, (E)-N^1-(3-fluoro-4-(6-methoxy-7-(3-(4-methyl-1-piperazinyl)propoxy)quinoline-4-yloxy)phenyl)-N^4-(2,4-dichlorobenzaldehyde)thiosemicarbazone] | 1.9 | 1.5 |  | 1.9 | 3.1 | 2.8 | 
15 | 0.59 (≈ 0.955 µM) | 0.2 (≈ 0.324 µM) | 1.4 (≈ 2.27 µM) | 0.53 (≈ 0.858 µM) | 1.3 (≈ 2.1 µM) | COc1cc2c(Oc3ccc(N(/N=C/c4cc(C)c(O)c(C)c4)C(N)=O)cc3F)ccnc2cc1OCCCN1CCOCC1 [Example 27, (E)-N^1-(3-fluoro-4-(6-methoxy-7-(3-(morpholin-4-yl)propoxy)quinoline-4-yloxy)phenyl)-N^4-(3,5-dimethyl-4-hydroxybenzaldehyde)semicarbazone] |  |  |  |  |  |  | 0.96 (≈ 1.55 µM)
16 |  |  |  |  |  | COc1cc2c(Oc3ccc(NC(=S)N/N=C/c4ccccc4)cc3F)ccnc2cc1OCCCN1CCN(C)CC1 [Example 39, (E)-N^1-(3-fluoro-4-(6-methoxy-7-(3-(4-methyl-1-piperazinyl)propoxy)quinoline-4-yloxy)phenyl)-N^4-(benzaldehyde)thiosemicarbazone] | 0.94 | 0.59 | 1.6 | 0.97 | 1.7 | 1.1 | 
17 |  |  |  |  |  | (E)-N^1-(3-fluoro-4-(6-methoxy-7-(3-(piperidin-1-yl)propoxy)quinolin-4-yloxy)phenyl)-N^4-(3,4-difluorobenzylidene)thiosemicarbazide [Example 31] | 0.013 | 0.11 | 0.22 | 0.059 | 0.39 | 0.041 | 
18 |  |  |  |  |  | COc1cc2c(Oc3ccc(NC(=S)NN=Cc4ccc(F)cc4Cl)cc3F)ccnc2cc1OCCCN1CCN(C)CC1 [Example 42, (E)-N^1-(3-fluoro-4-(6-methoxy-7-(3-(4-methyl-1-piperazinyl)propoxy)quinoline-4-yloxy)phenyl)-N^4-(2-chloro-4-fluorobenzaldehyde)thiosemicarbazone] |  | 0.34 | 1.0 | 0.29 | 0.96 | 0.38 | 
19 |  |  |  |  |  | (E)-N^1-(3-fluoro-4-(6-methoxy-7-(3-(morpholin-4-yl)propoxy)quinoline-4-oxy)phenyl)-N^4-(3,4-difluorobenzaldehyde)semicarbazone [Example 23] |  | 5.7 | 5.6 | 2.9 | 5.9 | 3.6 | 
